Bridge positions count the residues as written; N and C are the ends. Peptide text beside a SMILES is read from it.
Columns and labels:
[1] = biological target: T1, Glucagon-like peptide 1 receptor (Homo sapiens, UniProt P43220); test: Activation of human GLP1 receptor expressed in HEK293 cells assessed as increase in cAMP accumulation; assay type: functional, cell-based; conditions: read-out: EC50
[2] = biological target: T1, Glucagon-like peptide 1 receptor; test: Activation of human GLP1 receptor expressed in HEK293 cells assessed as increase in cAMP accumulation relative to GLP1; assay type: functional, cell-based
DPP4 = test: Chemical stability of the compound assessed as half life up to 24 hrs by HPLC analysis in presence of human recombinant DPP4; assay type: physicochemical
NEP 24.11 = test: Chemical stability of the compound assessed as half life up to 24 hrs by HPLC analysis in presence of human recombinant NEP 24.11; assay type: physicochemical

T1 sequence (P43220 whole entry): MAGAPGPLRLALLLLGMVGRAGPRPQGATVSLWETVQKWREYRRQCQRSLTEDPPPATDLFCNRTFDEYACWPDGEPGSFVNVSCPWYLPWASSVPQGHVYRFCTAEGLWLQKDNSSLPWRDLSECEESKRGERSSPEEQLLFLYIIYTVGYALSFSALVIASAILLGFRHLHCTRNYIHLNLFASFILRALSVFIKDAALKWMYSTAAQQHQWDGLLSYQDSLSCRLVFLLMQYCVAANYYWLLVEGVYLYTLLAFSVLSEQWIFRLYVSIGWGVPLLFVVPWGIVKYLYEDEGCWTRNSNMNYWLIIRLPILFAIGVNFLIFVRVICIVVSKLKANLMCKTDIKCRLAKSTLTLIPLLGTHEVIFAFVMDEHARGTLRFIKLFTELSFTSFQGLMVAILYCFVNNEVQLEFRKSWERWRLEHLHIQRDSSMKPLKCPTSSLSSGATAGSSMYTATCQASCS

| SMILES | EC50 [1] | Activity [2] | half-life (DPP4) | half-life (NEP 24.11) |
| --- | --- | --- | --- | --- |
| CC[C@H](C)[C@H](NC(=O)[C@H](Cc1ccccc1)NC(=O)[C@H](CCC(=O)O)NC(=O)[C@H](CCCCN)NC(=O)[C@H](C)NC(=O)[C@H](C)NC(=O)[C@H](CCC(N)=O)NC(=O)CNC(=O)[C@@H]1CCCCNC(=O)CC[C@H](NC(=O)[C@H](CC(=O)O)NC(=O)[C@H](CO)NC(=O)[C@@H](NC(=O)[C@H](Cc2ccccc2)NC(=O)[C@@H](NC(=O)CNC(=O)[C@H](CCC(=O)O)NC(=O)[C@H](C)NC(=O)[C@@H](N)Cc2cnc[nH]2)[C@@H](C)O)[C@@H](C)O)C(=O)N[C@@H](CO)C(=O)N[C@@H](CO)C(=O)N[C@@H](Cc2ccc(O)cc2)C(=O)N1)C(=O)N[C@@H](C)C(=O)N[C@@H](Cc1c[nH]c2ccccc12)C(=O)N[C@@H](CC(C)C)C(=O)N[C@H](C(=O)N[C@@H](CCCCN)C(=O)NCC(=O)N[C@@H](CCCNC(=N)N)C(N)=O)C(C)C (H-HAEGTFTSDESSYKGQAAKEFIAWLVKGR-NH2; lactam 10-14) | 3.8 nM | 120% | 1.8 h | 3.2 h |
| CC[C@H](C)[C@H](NC(=O)[C@H](Cc1ccccc1)NC(=O)[C@H](CCC(=O)O)NC(=O)[C@H](CCCCN)NC(=O)[C@H](C)NC(=O)[C@H](C)NC(=O)[C@H](CCC(N)=O)NC(=O)CNC(=O)[C@H](CCC(=O)O)NC(=O)[C@@H]1CCC(=O)NCCCC[C@H](NC(=O)[C@H](CC(=O)O)NC(=O)[C@H](CO)NC(=O)[C@@H](NC(=O)[C@H](Cc2ccccc2)NC(=O)[C@@H](NC(=O)CNC(=O)[C@H](CCC(=O)O)NC(=O)[C@H](C)NC(=O)[C@@H](N)Cc2cnc[nH]2)[C@@H](C)O)[C@@H](C)O)C(=O)N[C@@H](CO)C(=O)N[C@@H](CO)C(=O)N[C@@H](Cc2ccc(O)cc2)C(=O)N1)C(=O)N[C@H]1CCCCNC(=O)CC[C@@H](C(=O)NCC(=O)N[C@@H](CCCNC(=N)N)C(N)=O)NC(=O)[C@H](C(C)C)NC(=O)[C@H](CC(C)C)NC(=O)[C@H](Cc2c[nH]c3ccccc23)NC1=O (H-HAEGTFTSDKSSYEEGQAAKEFIKWLVEGR-NH2; lactam 10-14, 24-28) | 7 nM | 70% | 2.9 h | 17 h |
| CC[C@H](C)[C@H](NC(=O)[C@H](Cc1ccccc1)NC(=O)[C@H](CCC(=O)O)NC(=O)[C@H](CCCCN)NC(=O)[C@H](C)NC(=O)[C@H](C)NC(=O)[C@@H]1CCCCNC(=O)CC[C@H](NC(=O)[C@H](CO)NC(=O)[C@@H](NC(=O)[C@H](CC(=O)O)NC(=O)[C@H](CO)NC(=O)[C@@H](NC(=O)[C@H](Cc2ccccc2)NC(=O)[C@@H](NC(=O)CNC(=O)[C@H](CCC(=O)O)NC(=O)[C@H](C)NC(=O)[C@@H](N)Cc2cnc[nH]2)[C@@H](C)O)[C@@H](C)O)C(C)C)C(=O)N[C@@H](Cc2ccc(O)cc2)C(=O)N[C@@H](CC(C)C)C(=O)NCC(=O)N1)C(=O)N[C@@H](C)C(=O)N[C@@H](Cc1c[nH]c2ccccc12)C(=O)N[C@@H](CC(C)C)C(=O)N[C@H](C(=O)N[C@@H](CCCCN)C(=O)NCC(=O)N[C@@H](CCCNC(=N)N)C(N)=O)C(C)C (H-HAEGTFTSDVSEYLGKAAKEFIAWLVKGR-NH2; lactam 12-16) | 0.6 nM | 770% | 2.1 h | 10 h |

Next, values leading:

| EC50 [1] | Activity [2] | half-life (DPP4) | half-life (NEP 24.11) | SMILES |
| --- | --- | --- | --- | --- |
| 1 nM | 460% | 4.1 h | 18 h | CC[C@H](C)[C@H](NC(=O)[C@H](Cc1ccccc1)NC(=O)[C@H](CCC(=O)O)NC(=O)[C@H](CCCCN)NC(=O)[C@H](C)NC(=O)[C@H](C)NC(=O)[C@H](CCC(N)=O)NC(=O)[C@@H]1CCC(=O)NCCCC[C@H](NC(=O)[C@H](CO)NC(=O)[C@@H](NC(=O)[C@H](CC(=O)O)NC(=O)[C@H](CO)NC(=O)[C@@H](NC(=O)[C@H](Cc2ccccc2)NC(=O)[C@@H](NC(=O)CNC(=O)[C@H](CCC(=O)O)NC(=O)[C@H](C)NC(=O)[C@@H](N)Cc2cnc[nH]2)[C@@H](C)O)[C@@H](C)O)C(C)C)C(=O)N[C@@H](Cc2ccc(O)cc2)C(=O)N[C@@H](CC(C)C)C(=O)N[C@@H](CCC(=O)O)C(=O)N1)C(=O)N[C@H]1CCCCNC(=O)CC[C@@H](C(=O)NCC(=O)N[C@@H](CCCNC(=N)N)C(N)=O)NC(=O)[C@H](C(C)C)NC(=O)[C@H](CC(C)C)NC(=O)[C@H](Cc2c[nH]c3ccccc23)NC1=O (H-HAEGTFTSDVSKYLEEQAAKEFIKWLVEGR-NH2; lactam 12-16, 24-28) |
| 1.6 nM | 290% | 6 h | 3.5 h | CC[C@H](C)[C@H](NC(=O)[C@H](Cc1ccccc1)NC(=O)[C@H](CCC(=O)O)NC(=O)[C@@H]1CCCCNC(=O)CC[C@H](NC(=O)[C@H](CCC(=O)O)NC(=O)[C@H](CC(C)C)NC(=O)[C@H](Cc2ccc(O)cc2)NC(=O)[C@H](CO)NC(=O)[C@H](CO)NC(=O)[C@@H](NC(=O)[C@H](CC(=O)O)NC(=O)[C@H](CO)NC(=O)[C@@H](NC(=O)[C@H](Cc2ccccc2)NC(=O)[C@@H](NC(=O)CNC(=O)[C@H](CCC(=O)O)NC(=O)[C@H](C)NC(=O)[C@@H](N)Cc2cnc[nH]2)[C@@H](C)O)[C@@H](C)O)C(C)C)C(=O)N[C@@H](CCC(N)=O)C(=O)N[C@@H](C)C(=O)N[C@@H](C)C(=O)N1)C(=O)N[C@H]1CCC(=O)NCCCC[C@@H](C(=O)NCC(=O)N[C@@H](CCCNC(=N)N)C(N)=O)NC(=O)[C@H](C(C)C)NC(=O)[C@H](CC(C)C)NC(=O)[C@H](Cc2c[nH]c3ccccc23)NC1=O (H-HAEGTFTSDVSSYLEEQAAKEFIEWLVKGR-NH2; lactam 16-20, 24-28) |
| 2.2 nM | 210% | 7.3 h | 1.2 h | CC[C@H](C)[C@H](NC(=O)[C@H](Cc1ccccc1)NC(=O)[C@H](CCC(=O)O)NC(=O)[C@@H]1CCC(=O)NCCCC[C@H](NC(=O)[C@H](CCC(=O)O)NC(=O)[C@H](CC(C)C)NC(=O)[C@H](Cc2ccc(O)cc2)NC(=O)[C@H](CO)NC(=O)[C@H](CO)NC(=O)[C@@H](NC(=O)[C@H](CC(=O)O)NC(=O)[C@H](CO)NC(=O)[C@@H](NC(=O)[C@H](Cc2ccccc2)NC(=O)[C@@H](NC(=O)CNC(=O)[C@H](CCC(=O)O)NC(=O)[C@H](C)NC(=O)[C@@H](N)Cc2cnc[nH]2)[C@@H](C)O)[C@@H](C)O)C(C)C)C(=O)N[C@@H](CCC(N)=O)C(=O)N[C@@H](C)C(=O)N[C@@H](C)C(=O)N1)C(=O)N[C@H]1CCCCNC(=O)CC[C@@H](C(=O)NCC(=O)N[C@@H](CCCNC(=N)N)C(N)=O)NC(=O)[C@H](C(C)C)NC(=O)[C@H](CC(C)C)NC(=O)[C@H](Cc2c[nH]c3ccccc23)NC1=O (H-HAEGTFTSDVSSYLEKQAAEEFIKWLVEGR-NH2; lactam 16-20, 24-28) |

Source: ChEMBL document CHEMBL1240496, “Development of potent glucagon-like peptide-1 agonists with high enzyme stability via introduction of multiple lactam bridges” (J Med Chem, 2010)
